According to ChEMBL document CHEMBL1147919, “Syntheses and binding affinities of 6-nitroquipazine analogues for serotonin transporter. Part 5: 2'-Substituted 6-nitroquipazines” (Bioorg Med Chem, 2007):

The compounds below were run against Sodium-dependent serotonin transporter (Rattus norvegicus, UniProt P31652) (assay: Displacement of [3H]citalopram from Sprague-Dawley rat SERT).
Sodium-dependent serotonin transporter, sequence (P31652 whole entry): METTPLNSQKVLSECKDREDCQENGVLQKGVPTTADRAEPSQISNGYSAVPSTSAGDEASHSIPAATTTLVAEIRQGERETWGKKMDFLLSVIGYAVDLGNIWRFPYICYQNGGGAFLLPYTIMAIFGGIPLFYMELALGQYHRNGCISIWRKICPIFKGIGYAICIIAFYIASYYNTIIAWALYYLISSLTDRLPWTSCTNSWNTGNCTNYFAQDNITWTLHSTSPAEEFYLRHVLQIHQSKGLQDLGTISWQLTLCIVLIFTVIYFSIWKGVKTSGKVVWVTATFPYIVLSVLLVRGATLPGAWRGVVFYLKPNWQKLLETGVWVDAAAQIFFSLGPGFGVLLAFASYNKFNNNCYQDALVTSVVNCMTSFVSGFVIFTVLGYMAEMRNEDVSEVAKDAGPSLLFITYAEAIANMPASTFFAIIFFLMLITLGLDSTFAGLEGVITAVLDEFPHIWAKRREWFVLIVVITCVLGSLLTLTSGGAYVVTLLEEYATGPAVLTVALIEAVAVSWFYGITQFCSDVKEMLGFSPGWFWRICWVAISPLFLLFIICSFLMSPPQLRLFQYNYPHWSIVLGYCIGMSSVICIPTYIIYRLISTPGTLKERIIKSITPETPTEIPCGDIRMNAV

In order of rising Ki:
1. O=[N+]([O-])c1ccc2nc(N3CCNCC3)ccc2c1 [6-NITROQUIPAZINE]  0.24 nM
2. CCOCC1CNCCN1c1ccc2cc([N+](=O)[O-])ccc2n1 (stereo unspecified)  0.43 nM
3. O=[N+]([O-])c1ccc2nc(N3CCNCC3CO)ccc2c1 (stereo unspecified)  0.43 nM
4. COCC1CNCCN1c1ccc2cc([N+](=O)[O-])ccc2n1 (stereo unspecified)  0.68 nM
5. CCCOCC1CNCCN1c1ccc2cc([N+](=O)[O-])ccc2n1 (stereo unspecified)  5.67 nM
6. CCCCOCC1CNCCN1c1ccc2cc([N+](=O)[O-])ccc2n1 (stereo unspecified)  15.4 nM
